Source: ChEMBL document CHEMBL1201862, “PubChem BioAssay data set” (2004)
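Dose response: 5 concentrations. Exposure: 48 h. Format: 96-well plates. Endpoint: linear interpolation; highest concentration if not reached. GI50 is the concentration that inhibits growth by half.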 Activity calls are given as the source filed them. Cut-off read from the data, not from the text of the source: active = GI50 up to about 1.1 µM and inactive = higher.

Key:
Experiment in all cases: NCI-60 cell line screen, 48 h
MCF7 = test system: MCF7
HCT-15 = test system: HCT-15
CAKI-1 = test system: CAKI-1
HCT-116 = test system: HCT-116
OVCAR-3 = test system: OVCAR-3
HOP-62 = test system: HOP-62
UACC-257 = test system: UACC-257
SF-268 = test system: SF-268
SNB-19 = test system: SNB-19
NCI-H226 = test system: NCI-H226
RXF 393 = test system: RXF 393
HOP-92 = test system: HOP-92
SK-OV-3 = test system: SK-OV-3
Malme-3M = test system: Malme-3M
M14 = test system: M14
NCI-H23 = test system: NCI-H23
SW-620 = test system: SW-620
OVCAR-4 = test system: OVCAR-4
TK-10 = test system: TK-10
HL-60 = test system: HL-60

Measured: GI50

O=[N+]([O-])c1ccc(-c2nc3cc([N+](=O)[O-])ccc3[nH]2)cc1
inactive: MCF7 31 µM | CAKI-1 32.7 µM | HCT-116 19 µM | OVCAR-3 42.1 µM | HOP-62 31.9 µM | UACC-257 31 µM | SF-268 44.9 µM | SNB-19 43.1 µM | NCI-H226 39.6 µM | RXF 393 63.7 µM | HOP-92 19.6 µM | SK-OV-3 34.1 µM | Malme-3M 31.3 µM | M14 21.9 µM | NCI-H23 21.4 µM | SW-620 41.3 µM | OVCAR-4 47.2 µM | TK-10 52.2 µM
34.9 µM: HCT-15

OC(c1cc(C(F)(F)F)nc2c(Cl)cc(Cl)cc12)C1CCCCN1 (configuration not stated)
13 µM: HCT-15
inactive: MCF7 12.5 µM | CAKI-1 8.97 µM | HCT-116 13.6 µM | OVCAR-3 3.53 µM | HOP-62 3.77 µM | HL-60 5.82 µM | SF-268 16.8 µM | SNB-19 > 36.5 µM | NCI-H226 16.8 µM | RXF 393 4.8 µM | HOP-92 7.26 µM | SK-OV-3 12.3 µM | M14 > 25.1 µM | NCI-H23 8.55 µM | SW-620 5.89 µM | OVCAR-4 5.01 µM

Cc1cc(C)c(S(=O)(=O)N(CCCCN)OCCCN)c(C)c1
inactive: MCF7 17.7 µM | CAKI-1 17.4 µM | HCT-116 16.7 µM | OVCAR-3 18.4 µM | UACC-257 16.2 µM | SF-268 18.4 µM | SNB-19 19.6 µM | NCI-H226 16.5 µM | RXF 393 15.2 µM | HOP-92 19 µM | SK-OV-3 16.8 µM | Malme-3M 20.9 µM | M14 18.7 µM | NCI-H23 26.9 µM | SW-620 17.9 µM | OVCAR-4 17.5 µM | TK-10 18 µM

CCOC(=O)CCSS(=O)(=O)C(F)(F)F
> 100 µM: HCT-15
inactive: MCF7 > 100 µM | CAKI-1 > 100 µM | HCT-116 > 100 µM | OVCAR-3 > 100 µM | HOP-62 > 100 µM | HL-60 > 100 µM | UACC-257 > 100 µM | SNB-19 > 100 µM | NCI-H226 > 100 µM | RXF 393 > 100 µM | HOP-92 > 100 µM | SK-OV-3 > 100 µM | M14 > 100 µM | NCI-H23 > 100 µM | SW-620 > 100 µM | OVCAR-4 > 100 µM | TK-10 > 100 µM

O=C(NC(Cc1ccc(I)cc1)C(=O)O)c1ccc(I)cc1 (configuration not stated)
99.1 µM: HCT-15
inactive: MCF7 > 50.4 µM | CAKI-1 > 100 µM | HCT-116 54.1 µM | OVCAR-3 41.5 µM | HOP-62 72.3 µM | HL-60 > 62.1 µM | UACC-257 > 100 µM | SF-268 > 60 µM | SNB-19 54.7 µM | NCI-H226 > 100 µM | RXF 393 > 100 µM | HOP-92 66.7 µM | SK-OV-3 > 100 µM | Malme-3M 67.1 µM | NCI-H23 > 80.2 µM | OVCAR-4 51.4 µM

Cc1cc(NC(=S)SCc2ccc(F)cc2)c([N+](=O)[O-])cc1C
inactive: MCF7 42.1 µM | CAKI-1 47.2 µM | HCT-116 26.2 µM | OVCAR-3 22.6 µM | HOP-62 24.7 µM | HL-60 16.9 µM | UACC-257 21 µM | SF-268 31.5 µM | SNB-19 23.2 µM | NCI-H226 16.6 µM | RXF 393 22.9 µM | HOP-92 18.4 µM | SK-OV-3 32.3 µM | Malme-3M 25.6 µM | M14 35.5 µM | NCI-H23 29.8 µM | SW-620 27.5 µM | OVCAR-4 30.9 µM | TK-10 24.2 µM
18.3 µM: HCT-15

COc1ccc(C2C(=O)c3ccc(OC)cc3OC2c2cccnc2)cc1 (configuration not stated)
> 100 µM: HCT-15
inactive: MCF7 > 100 µM | CAKI-1 > 100 µM | HCT-116 > 100 µM | OVCAR-3 > 100 µM | HOP-62 33.2 µM | HL-60 > 100 µM | UACC-257 > 100 µM | SF-268 49.8 µM | SNB-19 92.7 µM | NCI-H226 44.2 µM | RXF 393 86.3 µM | HOP-92 22.5 µM | SK-OV-3 43.2 µM | Malme-3M > 100 µM | M14 > 100 µM | NCI-H23 > 100 µM | SW-620 > 100 µM | OVCAR-4 > 100 µM | TK-10 46.7 µM

CC(=O)O[C@@H]1[C@H]2[C@@H](OC(=O)c3ccccc3)[C@@H](C)C[C@]2(O)[C@H](OC(C)=O)[C@@]2(C)[C@@H]3C[C@@](C)(OC(C)=O)C[C@@H](OC(C)=O)[C@@]3(OC(C)=O)C[C@@]12C
inactive: MCF7 > 10 µM | CAKI-1 > 10 µM | HCT-116 > 10 µM | OVCAR-3 > 10 µM | HOP-62 > 10 µM | HL-60 > 10 µM | UACC-257 > 10 µM | SF-268 > 10 µM | SNB-19 > 10 µM | NCI-H226 > 10 µM | RXF 393 > 10 µM | HOP-92 > 10 µM | SK-OV-3 > 10 µM | M14 > 10 µM | NCI-H23 > 10 µM | SW-620 > 10 µM | OVCAR-4 > 10 µM | TK-10 > 10 µM
> 10 µM: HCT-15

CC(=O)OCC1OC(N2C(=O)NC(=O)C3C=C4CCCCC4=CC32)C(OC(C)=O)C1OC(C)=O (configuration not stated)
inactive: MCF7 > 100 µM | CAKI-1 > 100 µM | HCT-116 > 100 µM | OVCAR-3 > 100 µM | HL-60 > 100 µM | UACC-257 > 100 µM | SNB-19 > 100 µM | RXF 393 > 100 µM | HOP-92 > 100 µM | SK-OV-3 > 100 µM | Malme-3M > 100 µM | M14 > 100 µM | NCI-H23 > 100 µM | SW-620 > 100 µM | OVCAR-4 > 100 µM | TK-10 > 100 µM
> 100 µM: HCT-15

COc1ccccc1Cc1nc(-c2ccccc2)nn(C2OC(COC(C)=O)C(OC(C)=O)C(OC(C)=O)C2OC(C)=O)c1=S (configuration not stated)
inactive: MCF7 6.84 µM | CAKI-1 16.8 µM | HCT-116 10.1 µM | OVCAR-3 21.6 µM | HOP-62 10.1 µM | HL-60 > 64.7 µM | UACC-257 54.3 µM | SF-268 6.1 µM | SNB-19 5.75 µM | NCI-H226 30.5 µM | RXF 393 3.13 µM | HOP-92 7.31 µM | SK-OV-3 36.7 µM | Malme-3M 5.53 µM | NCI-H23 11.2 µM | SW-620 > 72.8 µM | OVCAR-4 3.31 µM
21.5 µM: HCT-15

CC1C(=O)C(C)C(c2cccs2)N(N=O)C1c1cccs1 (configuration not stated)
inactive: MCF7 > 100 µM | CAKI-1 > 100 µM | HCT-116 > 100 µM | OVCAR-3 9.27 µM | HOP-62 > 100 µM | HL-60 > 100 µM | UACC-257 > 100 µM | SF-268 > 100 µM | SNB-19 > 100 µM | NCI-H226 > 100 µM | RXF 393 > 100 µM | HOP-92 68.5 µM | SK-OV-3 > 56 µM | NCI-H23 > 100 µM | SW-620 > 100 µM | OVCAR-4 > 100 µM
> 100 µM: HCT-15

Clc1ccc(C(SCc2ccccc2)SCc2ccccc2)cc1
> 10 µM: HCT-15
inactive: MCF7 > 10 µM | CAKI-1 > 10 µM | HCT-116 > 10 µM | OVCAR-3 > 10 µM | HOP-62 > 10 µM | HL-60 > 10 µM | UACC-257 > 10 µM | SF-268 > 10 µM | SNB-19 > 10 µM | NCI-H226 > 10 µM | RXF 393 > 10 µM | HOP-92 > 10 µM | SK-OV-3 > 10 µM | Malme-3M > 10 µM | M14 > 10 µM | NCI-H23 > 10 µM | SW-620 > 10 µM | OVCAR-4 > 10 µM | TK-10 > 10 µM

CC(NC(=O)C(C)NC(=O)C(N)CCP(C)(=O)O)C(=O)O (configuration not stated)
> 100 µM: HCT-15
inactive: MCF7 > 100 µM | CAKI-1 > 100 µM | HCT-116 > 100 µM | OVCAR-3 > 100 µM | HOP-62 > 100 µM | HL-60 > 100 µM | UACC-257 > 100 µM | SF-268 > 100 µM | SNB-19 > 100 µM | NCI-H226 > 100 µM | RXF 393 > 100 µM | HOP-92 > 100 µM | SK-OV-3 > 100 µM | Malme-3M > 100 µM | NCI-H23 > 100 µM | SW-620 > 100 µM | OVCAR-4 > 100 µM

COC(=O)c1cc2c(cc1CC(Cc1ccc3c(c1)CCC3)C(=O)OC)CCC2 (configuration not stated)
inactive: MCF7 24.8 µM | CAKI-1 > 100 µM | HCT-116 40.7 µM | OVCAR-3 > 100 µM | HOP-62 > 100 µM | HL-60 8.61 µM | UACC-257 13.7 µM | SF-268 54.6 µM | SNB-19 > 100 µM | NCI-H226 7.24 µM | RXF 393 18.1 µM | HOP-92 21 µM | SK-OV-3 60.1 µM | Malme-3M 41.3 µM | M14 72.8 µM | NCI-H23 63.5 µM | SW-620 74 µM | OVCAR-4 24 µM | TK-10 88.5 µM
39.2 µM: HCT-15

O=C(O)c1cnc2c(ccc3ncc(C(=O)O)c(O)c32)c1O
inactive: MCF7 > 100 µM | CAKI-1 > 100 µM | HCT-116 > 100 µM | OVCAR-3 > 100 µM | HOP-62 > 100 µM | HL-60 > 100 µM | UACC-257 > 100 µM | SF-268 > 100 µM | SNB-19 > 100 µM | NCI-H226 > 100 µM | RXF 393 > 100 µM | HOP-92 > 100 µM | SK-OV-3 > 100 µM | Malme-3M > 100 µM | M14 > 100 µM | NCI-H23 > 100 µM | SW-620 > 100 µM | OVCAR-4 > 100 µM | TK-10 > 100 µM
> 100 µM: HCT-15
